Measured values from ChEMBL document CHEMBL1201862, “PubChem BioAssay data set” (2004).
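Dose response: 5 concentrations. Exposure: 48 h. Format: 96-well plates. Endpoint: linear interpolation; highest concentration if not reached. GI50 is the concentration that inhibits growth by half.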 The source made the active and inactive calls. Cut-off read from the data, not from the text of the source: active = GI50 up to about 1.1 µM and inactive = higher.

Tests used:
Test in all cases: NCI anticancer screen, dose series, 48 h
[1] = tested on: Malme-3M
[2] = tested on: SR
[3] = tested on: SN12C
[4] = tested on: SW-620
[5] = tested on: BT-549
[6] = tested on: MOLT-4
[7] = tested on: SK-OV-3
[8] = tested on: OVCAR-3
[9] = tested on: OVCAR-5
[10] = tested on: IGROV-1
[11] = tested on: HCC 2998
[12] = tested on: OVCAR-8
[13] = tested on: A498
[14] = tested on: 786-0
[15] = tested on: CCRF-CEM
[16] = tested on: HCT-15
[17] = tested on: RPMI-8226
[18] = tested on: MDA-MB-231
[19] = tested on: UO-31
[20] = tested on: TK-10
[21] = tested on: K562
[22] = tested on: SK-MEL-2
[23] = tested on: RXF 393
[24] = tested on: HL-60
[25] = tested on: U-251
[26] = tested on: MDA-MB-435
[27] = tested on: M14
[28] = tested on: ACHN
[29] = tested on: UACC-257
[30] = tested on: OVCAR-4
[31] = tested on: SF-268
[32] = tested on: A549
[33] = tested on: HOP-62
[34] = tested on: NCI-H522
[35] = tested on: MCF7
[36] = tested on: DU-145
[37] = tested on: HCT-116
[38] = tested on: SNB-75
[39] = tested on: SNB-19
[40] = tested on: LOX IMVI
[41] = tested on: MDA-N
[42] = tested on: COLO 205
[43] = tested on: SK-MEL-5
[44] = tested on: NCI-H23
[45] = tested on: EKVX
[46] = tested on: NCI/ADR-RES
[47] = tested on: SF-539
[48] = tested on: KM12
[49] = tested on: UACC-62
[50] = tested on: Hs-578T
[51] = tested on: NCI-H226
[52] = tested on: HT-29
[53] = tested on: HOP-92
[54] = tested on: SF-295
[55] = tested on: T47D

In the case of `CCCCc1ccc(Nc2nc(O)c3ncn(COCCO)c3n2)cc1`, the GI50 [1] is reported as > 100 µM (inactive), the GI50 [2] is reported as 88.3 µM (inactive) and the GI50 [3] is reported as > 100 µM (inactive). For the same compound, the GI50 [4] was > 100 µM (inactive), the GI50 [5] was > 100 µM (inactive) and the GI50 [6] was 56 µM (inactive). The GI50 [7] was > 100 µM (inactive), the GI50 [8] was > 100 µM (inactive) and the GI50 [9] was > 100 µM (inactive). The GI50 [10] was > 100 µM (inactive), the GI50 [11] was > 100 µM (inactive) and the GI50 [12] was > 100 µM (inactive). The GI50 [13] was > 100 µM (inactive), the GI50 [14] was 44.1 µM (inactive) and the GI50 [15] was > 100 µM (inactive). The GI50 [16] was > 100 µM, the GI50 [17] was 43.9 µM (inactive) and the GI50 [18] was > 100 µM (inactive). For the same compound, the GI50 [19] was > 100 µM (inactive), the GI50 [20] was > 100 µM (inactive) and the GI50 [21] was 29.8 µM (inactive). The GI50 [22] was > 100 µM (inactive), the GI50 [23] was > 100 µM (inactive) and the GI50 [24] was > 100 µM (inactive). The GI50 [25] was 57.4 µM (inactive), the GI50 [26] was > 100 µM (inactive) and the GI50 [27] was > 100 µM (inactive). For the same compound, the GI50 [28] was > 100 µM (inactive), the GI50 [29] was > 100 µM (inactive) and the GI50 [30] was > 100 µM (inactive). For the same compound, the GI50 [31] was > 100 µM (inactive), the GI50 [32] was > 100 µM (inactive) and the GI50 [33] was > 100 µM (inactive). The GI50 [34] was > 100 µM (inactive), the GI50 [35] was > 100 µM (inactive) and the GI50 [36] was > 100 µM (inactive). The GI50 [37] was > 100 µM (inactive), the GI50 [38] was > 100 µM (inactive) and the GI50 [39] was 75.7 µM (inactive). For the same compound, the GI50 [40] was > 100 µM (inactive), the GI50 [41] was > 100 µM (inactive) and the GI50 [42] was > 100 µM (inactive). The GI50 [43] was > 100 µM (inactive), the GI50 [44] was 93.8 µM (inactive) and the GI50 [45] was > 100 µM (inactive). For the same compound, the GI50 [46] was > 100 µM (inactive), the GI50 [47] was > 100 µM (inactive) and the GI50 [48] was > 100 µM (inactive). For the same compound, the GI50 [49] was > 100 µM (inactive), the GI50 [50] was > 100 µM (inactive) and the GI50 [51] was > 100 µM (inactive). For the same compound, the GI50 [52] was > 100 µM (inactive), the GI50 [53] was > 100 µM (inactive) and the GI50 [54] was > 100 µM (inactive). For the same compound, the GI50 [55] was 73.1 µM (inactive).
